Measured values as given in a compilation of properties of binary mixtures (doi:10.1007/s10953-018-0729-9).

Assay: xn = mol fraction of the nth substance listed
Settings: 101.3 kPa

CCCC[n+]1ccn(C)c1.F[P-](F)(F)(F)(F)F + O=C1CCCN1
x1 = 1
Settings | speed of sound [m/s]
303.15 K | 1431.7
308.15 K | 1419.8
313.15 K | 1408.2
318.15 K | 1396.8
323.15 K | 1385.6

O=C1CCCN1 + CCCC[n+]1ccn(C)c1.F[P-](F)(F)(F)(F)F
speed of sound [m/s]
Settings | 303.15 K | 308.15 K | 313.15 K | 318.15 K | 323.15 K
x2 = 0 | 1618 | – | 1585.4 | 1569.4 | –
x2 = 0.0494 | 1584.7 | – | 1553.7 | 1538.4 | 1523.2
x2 = 0.1025 | 1575.2 | 1560 | 1545.1 | 1530.3 | –
x2 = 0.1503 | 1566.5 | 1551.8 | 1537.3 | 1522.9 | 1508.6
x2 = 0.2215 | 1553.8 | – | 1525.6 | 1511.8 | 1498
x2 = 0.3376 | 1532.9 | 1519.5 | 1506.3 | 1493.2 | 1480.2
x2 = 0.4502 | 1512.7 | 1499.9 | – | 1474.8 | 1462.4
x2 = 0.5654 | 1492 | 1479.6 | – | 1455.4 | 1443.5
x2 = 0.6527 | 1476.3 | 1464.2 | 1452.3 | 1440.5 | 1428.8
x2 = 0.7421 | – | 1448.2 | 1436.5 | 1424.8 | 1413.4
x2 = 0.8295 | 1446.5 | 1434.6 | 1422.9 | – | –
x2 = 0.8622 | 1442.6 | 1430.7 | – | 1407.5 | 1396.1
x2 = 0.9019 | 1438.5 | 1426.6 | 1414.8 | 1403.3 | 1391.9
x2 = 0.9495 | – | 1423 | 1411.2 | 1399.6 | –
